Source: ChEMBL document CHEMBL4627246, “Pyroglutamide-Based P2X7 Receptor Antagonists Targeting Inflammatory Bowel Disease” (J Med Chem, 2020)

How the values were obtained:
Type in all cases: cell-based
[1] = tested on: A498; test: Cytotoxicity against human A498 cells assessed as effect on cell growth at 10 uM incubated for 48 hrs by sulforhodamine B assay; details: a498, 48 h
[2] = tested on: SR; test: Cytotoxicity against human SR cells assessed as effect on cell growth at 10 uM incubated for 48 hrs by sulforhodamine B assay
[3] = tested on: A549; test: Cytotoxicity against human A549/ATCC cells assessed as effect on cell growth at 10 uM incubated for 48 hrs by sulforhodamine B assay; details: a549, 48 h
[4] = tested on: OVCAR-8; test: Cytotoxicity against human OVCAR8 cells assessed as effect on cell growth at 10 uM incubated for 48 hrs by sulforhodamine B assay; details: ovcar-8, 48 h
[5] = tested on: HOP-92; test: Cytotoxicity against human HOP92 cells assessed as effect on cell growth at 10 uM incubated for 48 hrs by sulforhodamine B assay; details: hop-92, 48 h
[6] = tested on: MDA-MB-231; test: Cytotoxicity against human MDA-MB-231 cells assessed as effect on cell growth at 10 uM incubated for 48 hrs by sulforhodamine B assay; details: mda-mb-231, 48 h
[7] = tested on: SN12C; test: Cytotoxicity against human SN12C cells assessed as effect on cell growth at 10 uM incubated for 48 hrs by sulforhodamine B assay
[8] = tested on: NCI-H226; test: Cytotoxicity against human NCI-H226 cells assessed as effect on cell growth at 10 uM incubated for 48 hrs by sulforhodamine B assay; details: nci-h226, 48 h
[9] = tested on: 786-0; test: Cytotoxicity against human 786-0 cells assessed as effect on cell growth at 10 uM incubated for 48 hrs by sulforhodamine B assay; details: 786-0, 48 h
[10] = tested on: HT-29; test: Cytotoxicity against human HT-29 cells assessed as effect on cell growth at 10 uM incubated for 48 hrs by sulforhodamine B assay; details: ht-29, 48 h
[11] = tested on: SW-620; test: Cytotoxicity against human SW620 cells assessed as effect on cell growth at 10 uM incubated for 48 hrs by sulforhodamine B assay; details: sw-620, 48 h
[12] = tested on: OVCAR-5; test: Cytotoxicity against human OVCAR5 cells assessed as effect on cell growth at 10 uM incubated for 48 hrs by sulforhodamine B assay; details: ovcar-5, 48 h
[13] = tested on: SF-539; test: Cytotoxicity against human SF539 cells assessed as effect on cell growth at 10 uM incubated for 48 hrs by sulforhodamine B assay; details: sf-539, 48 h
[14] = tested on: SK-MEL-28; test: Cytotoxicity against human SK-MEL-28 cells assessed as effect on cell growth at 10 uM incubated for 48 hrs by sulforhodamine B assay; details: sk-mel-28, 48 h
[15] = tested on: NCI-H322M; test: Cytotoxicity against human NCI-H322M cells assessed as effect on cell growth at 10 uM incubated for 48 hrs by sulforhodamine B assay
[16] = tested on: SF-268; test: Cytotoxicity against human SF268 cells assessed as effect on cell growth at 10 uM incubated for 48 hrs by sulforhodamine B assay; details: sf-268, 48 h
[17] = tested on: BT-549; test: Cytotoxicity against human BT549 cells assessed as effect on cell growth at 10 uM incubated for 48 hrs by sulforhodamine B assay; details: bt-549, 48 h
[18] = tested on: NCI-H23; test: Cytotoxicity against human NCI-H23 cells assessed as effect on cell growth at 10 uM incubated for 48 hrs by sulforhodamine B assay; details: nci-h23, 48 h
[19] = tested on: HCC 2998; test: Cytotoxicity against human HCC2998 cells assessed as effect on cell growth at 10 uM incubated for 48 hrs by sulforhodamine B assay; details: hcc 2998, 48 h
[20] = tested on: COLO 205; test: Cytotoxicity against human COLO205 cells assessed as effect on cell growth at 10 uM incubated for 48 hrs by sulforhodamine B assay; details: colo 205, 48 h

Measured: Activity

CCCCCCN1C(=O)[C@@H]2C/C(=C\N(C)C)C(=O)N2C1N(C)C (stereo not given in full)
Non-Toxic: all assays above

CN1C(=O)CC[C@H]1C(=O)NCc1cccc(C(F)(F)F)c1Cl [GSK1482160]
Non-Toxic: all assays above

O=C(NCc1ccc(Cl)cc1Cl)[C@@H]1CCC(=O)N1c1ccsc1
Non-Toxic: all assays above

O=C(NCc1ccc(Cl)cc1Cl)[C@@H]1CCC(=O)N1c1nccs1
Non-Toxic: all assays above
